Measured values taken from US11161856B2 (H. Lundbeck A/S, priority 2017, dated 2021).

Tests used:
[1] = biological target: T1, MGLL (Mus musculus, UniProt O35678); test: In vitro competitive activity-based protein profiling, mouse brain proteome (MGLL); format: biochemical; conditions: concentration not given (μM)
T1 construct: Brain; from tissue; host or cells: mouse brain proteome
T1 sequence (O35678 1-303): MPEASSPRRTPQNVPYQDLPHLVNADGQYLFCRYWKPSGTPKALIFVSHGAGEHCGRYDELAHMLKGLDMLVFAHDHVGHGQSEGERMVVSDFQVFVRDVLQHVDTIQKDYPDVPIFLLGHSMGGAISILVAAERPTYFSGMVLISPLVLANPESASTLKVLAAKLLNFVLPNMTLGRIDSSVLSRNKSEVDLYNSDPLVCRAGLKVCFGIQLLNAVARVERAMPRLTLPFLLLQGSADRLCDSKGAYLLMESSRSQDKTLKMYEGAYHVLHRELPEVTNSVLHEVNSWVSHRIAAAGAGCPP

[2] = biological target: T2, ABHD6 (Mus musculus, UniProt Q8R2Y0); test: In vitro competitive activity-based protein profiling, mouse brain proteome (ABHD6); format: biochemical; conditions: mouse brain proteome; concentration not given (μM)
T2 construct: Brain; from tissue; host or cells: mouse brain proteome
T2 sequence (Q8R2Y0 1-336): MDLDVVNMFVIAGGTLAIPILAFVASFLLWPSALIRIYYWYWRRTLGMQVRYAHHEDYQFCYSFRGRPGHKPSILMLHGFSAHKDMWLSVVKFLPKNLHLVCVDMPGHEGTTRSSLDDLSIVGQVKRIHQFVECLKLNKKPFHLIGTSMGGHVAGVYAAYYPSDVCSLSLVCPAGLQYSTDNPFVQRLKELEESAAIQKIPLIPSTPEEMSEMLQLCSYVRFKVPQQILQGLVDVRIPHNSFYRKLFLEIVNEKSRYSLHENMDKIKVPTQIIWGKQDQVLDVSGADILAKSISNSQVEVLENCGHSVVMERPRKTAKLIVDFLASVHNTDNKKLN
Method: [The source words this procedure for another target and reports this target under the same test.] In Vitro Competitive Activity-Based Protein Profiling.
Proteomes (human prefrontal cortex or cell membrane fractions) (50 μL, 1.0 mg/mL total protein concentration) were preincubated with varying concentrations of inhibitors at 37° C. After 30 min, FP-Rh or HT-01 (1.0 μL, 50 μM in DMSO) was added and the mixture was incubated for another 30 min at room temperature. Reactions were quenched with SDS loading buffer (15 μL-4×) and run on SDS-PAGE.

| SMILES | % Inh MGLL Brain (Mouse, μM) [1] | % Inh ABHD6 Brain (Mouse, μM) [2] |
| --- | --- | --- |
| O=C(OC(C(F)(F)F)C(F)(F)F)N1CCC2(CC1)CN(Cc1ccc(N3CCCC3)cc1)C2 [Example 80, 1,1,1,3,3,3-Hexafluoropropan-2-yl 2-(4-(pyrrolidin-1-yl)benzyl)-2,7-diazaspiro[3.5]nonane-7-carboxylate] | ### (### is ≥75%) | # (# is ≤25%) |
| O=C(OC(C(F)(F)F)C(F)(F)F)N1CCC2(CC1)CN(Cc1c(Cl)cccc1N1CCC3(CCOCC3)C1)C2 [Example 48, 1,1,1,3,3,3-Hexafluoropropan-2-yl 2-(2-chloro-6-(8-oxa-2-azaspiro[4.5]decan-2-yl)benzyl)-2,7-diazaspiro[3.5]nonane-7-carboxylate] | ### (### is ≥75%) | ### (### is ≥75%) |
| O=C(OC(C(F)(F)F)C(F)(F)F)N1CCC2(CC1)CN(Cc1ccc(Cl)c(Cl)c1)C2 [Example 67, 1,1,1,3,3,3-Hexafluoropropan-2-yl 2-(3,4-dichlorobenzyl)-2,7-diazaspiro[3,5]nonane-7-carboxylate] | ### (### is ≥75%) | ### (### is ≥75%) |
| O=C(O)C1CCN(c2cc(C(F)(F)F)ccc2CN2CCC3(CC2)CCN(C(=O)OC(C(F)(F)F)C(F)(F)F)C3)CC1 [Example 195, l-(2-((2-(((l,1,1,3,3,3-Hexafluoropropan-2-yl)oxy)carbonyl)-2,8-diazaspino[4.5]decan-8-yl)melhyl)-5-(trifluoromethyl)phenyl)piperidine-4-carboxylic acid] | ### (### is ≥75%) | # (# is ≤25%) |
| Cc1cccc(CN2CC3(CCN(C(=O)OC(C(F)(F)F)C(F)(F)F)CC3)C2)c1 [Example 86, 1,1,1,3,3,3-Hexafluoropropan-2-yl 2-(3-methylbenzyl)-2,7-diazaspiro[3.5]nonane-7-carboxylate] | ### (### is ≥75%) | ### (### is ≥75%) |
| COc1ccc(CN2CC3(CCN(C(=O)OC(C(F)(F)F)C(F)(F)F)CC3)C2)cc1 [Example 85, 1,1,1,3,3,3-Hexafluoropropan-2-yl 2-(4-methoxybenzyl)-2,7-diazaspiro[3.5]nonane-7-carboxylate] | ### (### is ≥75%) | ### (### is ≥75%) |
| CCN1CCC2(CC1)CCN(c1cc(Cl)cc(CN3CCCC34CN(C(=O)OC(C(F)(F)F)C(F)(F)F)C4)c1)C2 [Example 239, 1,1,1,3,3,3-Hexafluoropropan-2-yl 5-(3-chloro-5-(8-ethyl-2,8-diazaspiro[4.5]decan-2-yl)benzyl)-2,5-diazaspiro[3,4]octane-2-carboxylate] | ## (## is between 25 and 75%) | ## (## is between 25 and 75%) |
| O=C(OC(C(F)(F)F)C(F)(F)F)N1CCC2(CC1)CN(Cc1ccc(N3CCOCC3)cc1Cl)C2 [Example 79, 1,1,1,3,3,3-Hexafluoropropan-2-yl 2-(2-chloro-4-morpholinobenzyl)-2,7-diazaspiro[3.5]nonane-7-carboxylate] | ### (### is ≥75%) | ### (### is ≥75%) |
| O=C(OC(C(F)(F)F)C(F)(F)F)N1CC2(CCN(Cc3ccc(N4CCOCC4)cc3)CC2)C1 [Example 65, 1,1,1,3,3,3-Hexafluoropropan-2-yl 7-(4-morpholinobenzyl)-2,7-diazaspiro[3.5]nonane-2-carboxylate] | ### (### is ≥75%) | ### (### is ≥75%) |
| O=C(OC(C(F)(F)F)C(F)(F)F)N1CCC2(CCN(Cc3ccc(Cl)cc3N3CCCCC3)CC2)C1 [Example 191, 1,1,1,3,3,3-Hexafluoropropan-2-yl 8-(4-chloro-2-(piperidin-1-yl)benzyl)-2,8-diazaspiro[4.5]decane-2-carboxylate] | ### (### is ≥75%) | # (# is ≤25%) |
| O=C(OC(C(F)(F)F)C(F)(F)F)N1CCC2(CC1)CN(Cc1ccc(C(F)(F)F)cc1N1CCOCC1)C2 [Example 36, 1,1,1,3,3,3-Hexafluoropropan-2-yl 2-(2-morpholino-4-(trifluoromethyl)benzyl)-2,7-diazaspiro[3.5]nonane-7-carboxylate] | ### (### is ≥75%) | ### (### is ≥75%) |
| CC(=O)N1CC2(CCN(c3ccccc3CN3CCCC34CN(C(=O)OC(C(F)(F)F)C(F)(F)F)C4)C2)C1 [Example 230, 1,1,1,3,3,3-Hexafluoropropan-2-yl 5-(2-(2-acetyl-2,6-diazaspiro[3,4]octan-6-yl)benzyl)-2,5-diazaspiro[3.4]octane-2-carboxylate] | ## (## is between 25 and 75%) | # (# is ≤25%) |
| CN1CC2(CCN(c3cc(C(F)(F)F)ccc3CN3CCN(C(=O)OC(C(F)(F)F)C(F)(F)F)CC3)C2)C1 [Example 179, 1,1,1,3,3,3-Hexafluoropropan-2-yl 4-(2-(2-methyl-2,6-diazaspiro[3,4]octan-6-yl)-4-(trifluoromethyl)benzyl) piperazine-1-carboxylate] | ### (### is ≥75%) | # (# is ≤25%) |
| CCN1CCN(c2cccc(C(F)(F)F)c2CN2CC3(CCN(C(=O)OC(C(F)(F)F)C(F)(F)F)CC3)C2)CC1 [Example 54, 1,1,1,3,3,3-Hexafluoropropan-2-yl 2-(2-(4-ethylpiperazin-1-yl)-6-(trifluoromethyl)benzyl)-2,7-diazaspiro[3.5]nonane-7-carboxylate] | ### (### is ≥75%) | # (# is ≤25%) |
| CS(=O)(=O)N1CC2CN(c3cc(Cl)ccc3CN3CCN(C(=O)OC(C(F)(F)F)C(F)(F)F)CC3)CC2C1 (stereo not drawn) [Example 203, 1,1,1,3,3,3-Hexafluoropropan-2-yl 4-(4-chloro-2-(5-(methylsulfonyl)hexahydropyrrolo[3,4-c]pyrrol-2(lH)-yl)benzyl)piperazine-l - carboxylate] | ### (### is ≥75%) | ### (### is ≥75%) |
| O=C(OC(C(F)(F)F)C(F)(F)F)N1CCC2(CC1)CN(Cc1c(N3CCN(C4CC4)CC3)cccc1C(F)(F)F)C2 [Example 60, 1,1,1,3,3,3-Hexafluoropropan-2-yl 2-(2-(4-cyclopropylpiperazin-1-yl)-6-(trifluoromethyl)benzyl)-2,7-diazaspiro[3.5]nonane-7-carboxylate] | ### (### is ≥75%) | ### (### is ≥75%) |
| O=C(OC(C(F)(F)F)C(F)(F)F)N1CCC2(CCN(Cc3ccc(C(F)(F)F)cc3N3CC4CCC(C3)O4)CC2)C1 [Example 190, 1,1,1,3,3,3-Hexafluoropropan-2-yl 8-(2-(8-oxa-3-azabicyclo[3.2.1]octan-3-yl)-4-(trifluoromethyl)benzyl)-2,8-diazaspiro[4.5]decane-2-carboxylate] | ### (### is ≥75%) | # (# is ≤25%) |
| CCN1CCC2(CCN(c3cc(Cl)ccc3CN3CCN(C(=O)OC(C(F)(F)F)C(F)(F)F)CC3)CC2)C1 [Example 170, 1,1,1,3,3,3-Hexafluoropropan-2-yl 4-(4-chloro-2-(2-ethyl-2,8-diazaspiro[4.5]decan-8-yl)benzyl)piperazine-1-carboxylate] | ### (### is ≥75%) | # (# is ≤25%) |
| CS(=O)(=O)N1CCN(c2cccc(C(F)(F)F)c2CN2CC3(CCN(C(=O)OC(C(F)(F)F)C(F)(F)F)CC3)C2)CC1 [Example 53, 1,1,1,3,3,3-Hexafluoropropan-2-yl 2-(2-(4-(methylsulfonyl)piperazin-1-yl)-6-(trifluoromethyl)benzyl)-2,7-diazaspiro[3.5]nonane-7-carboxylate] | ### (### is ≥75%) | ### (### is ≥75%) |
| CC(=O)N1CCCc2cccc(CN3CCC4(CC3)CN(C(=O)OC(C(F)(F)F)C(F)(F)F)C4)c21 [Example 152, 1,1,1,3,3,3-Hexafluoropropan-2-yl 7-((1-acetyl-1,2,3,4-tetrahydroquinolin-8-yl)methyl)-2,7-diazaspiro[3.5]nonane-2-carboxylate] | ### (### is ≥75%) | ### (### is ≥75%) |
| CS(=O)(=O)N1CC2CN(c3cc(C(F)(F)F)ccc3CN3CCN(C(=O)OC(C(F)(F)F)C(F)(F)F)CC3)CC2C1 (stereo not drawn) [Example 201, 1,1,1,3,3,3-Hexafluoropropan-2-yl 4-(2-(5-(methylsulfonyl)hexahydropyrrolo[3,4-c]pyrrol-2(lH)-yl)-4-(tnfluoromethyl)benzyl)pipera zinc-1-carboxylate] | ### (### is ≥75%) | ## (## is between 25 and 75%) |
